According to US20240109865A1, “INDAZOLE COMPOUNDS AS KINASE INHIBITORS” (TYRA BIOSCIENCES, INC., priority 2020, published 2024):

What was measured:
[1] = molecular target: FGFR3-BAIAP2L1 Ba/F3 cells (Homo sapiens, UniProt P22607); experiment: Ba/F3 cell viability assay (CellTiter-Glo 2.0), FGFR3-BAIAP2L1 Ba/F3; format: cell-based; details: for Ba/F3 FGFR1/FGFR3 Selectivity: FGFR3 > FGFR1 selectivity ratio in Ba/F3 FGFR fusion cell based assays; for IC50: read-out: Ba/F3 Cells FGFR3 (IC50 nM), FGFR3-BAIAP2L1 Ba/F3 cells, 48 hours, Cell Titer Glo 2.0
Chain of FGFR3-BAIAP2L1 Ba/F3 cells (P22607 23-806 limits assumed, change not shown): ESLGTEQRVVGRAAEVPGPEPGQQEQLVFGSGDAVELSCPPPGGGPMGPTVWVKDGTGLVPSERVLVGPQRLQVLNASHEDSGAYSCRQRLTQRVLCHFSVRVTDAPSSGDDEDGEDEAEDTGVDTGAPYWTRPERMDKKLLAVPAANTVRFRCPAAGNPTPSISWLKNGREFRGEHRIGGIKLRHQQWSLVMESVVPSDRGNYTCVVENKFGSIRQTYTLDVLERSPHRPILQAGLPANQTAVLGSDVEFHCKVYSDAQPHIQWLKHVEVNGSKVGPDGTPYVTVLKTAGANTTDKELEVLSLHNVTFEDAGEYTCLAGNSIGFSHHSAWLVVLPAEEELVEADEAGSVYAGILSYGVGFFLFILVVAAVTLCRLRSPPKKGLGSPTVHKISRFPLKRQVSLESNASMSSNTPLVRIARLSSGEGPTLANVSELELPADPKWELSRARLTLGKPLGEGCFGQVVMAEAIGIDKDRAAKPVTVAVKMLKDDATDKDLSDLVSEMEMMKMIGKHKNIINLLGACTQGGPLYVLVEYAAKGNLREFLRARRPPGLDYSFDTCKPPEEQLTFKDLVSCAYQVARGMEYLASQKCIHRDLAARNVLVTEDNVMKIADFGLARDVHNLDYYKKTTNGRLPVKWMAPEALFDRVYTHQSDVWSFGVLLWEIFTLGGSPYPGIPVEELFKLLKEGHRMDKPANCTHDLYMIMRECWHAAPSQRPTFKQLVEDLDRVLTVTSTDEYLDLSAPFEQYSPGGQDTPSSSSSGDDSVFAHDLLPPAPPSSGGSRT
Summary of the method: (§1)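 Viability read as ATP luminescence (CellTiter-Glo 2.0) after 48 h compound exposure, normalized to DMSO-treated cells and fitted with a 4-parameter curve for IC50. Cells: Ba/F3 dependent on FGFR1-BCR or FGFR3-BAIAP2L1 fusion kinase; top dose 30 μM, 10-fold steps, 9 doses in triplicate.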

FGFR1-BCR Ba/F3 cells = FGFR1-BCR Ba/F3 cells (Homo sapiens, UniProt P11362); experiment: Ba/F3 cell viability assay (CellTiter-Glo 2.0), FGFR1-BCR Ba/F3; format: cell-based; details: read-out: Ba/F3 Cells FGFR1 (IC50 nM), 48 hours, Cell Titer Glo 2.0
Chain of FGFR1-BCR Ba/F3 cells (P11362 22-822 limits assumed, change not shown): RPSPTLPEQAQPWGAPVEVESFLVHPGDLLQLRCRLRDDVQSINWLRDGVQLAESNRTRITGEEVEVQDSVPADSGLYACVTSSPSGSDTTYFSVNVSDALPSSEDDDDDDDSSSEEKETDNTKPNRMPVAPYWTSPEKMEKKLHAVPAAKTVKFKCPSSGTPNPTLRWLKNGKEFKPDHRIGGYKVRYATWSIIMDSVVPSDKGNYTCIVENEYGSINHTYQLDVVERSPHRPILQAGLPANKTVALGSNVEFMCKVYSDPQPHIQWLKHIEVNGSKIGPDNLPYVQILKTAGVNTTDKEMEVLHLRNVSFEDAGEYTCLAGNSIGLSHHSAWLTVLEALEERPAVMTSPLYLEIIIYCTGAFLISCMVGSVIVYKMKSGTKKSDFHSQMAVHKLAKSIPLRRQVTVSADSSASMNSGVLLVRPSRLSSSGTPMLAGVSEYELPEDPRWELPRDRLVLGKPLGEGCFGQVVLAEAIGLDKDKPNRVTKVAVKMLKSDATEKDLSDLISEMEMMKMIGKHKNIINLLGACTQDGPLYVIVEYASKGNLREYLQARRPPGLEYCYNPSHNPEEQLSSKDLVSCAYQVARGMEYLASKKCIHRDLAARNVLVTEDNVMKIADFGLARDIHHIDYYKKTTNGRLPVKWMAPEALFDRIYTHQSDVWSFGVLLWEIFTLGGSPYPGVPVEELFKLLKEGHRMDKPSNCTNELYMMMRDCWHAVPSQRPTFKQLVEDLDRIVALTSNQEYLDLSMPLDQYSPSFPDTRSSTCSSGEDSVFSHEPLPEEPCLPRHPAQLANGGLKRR
Summary of the method: as §1

[2] = tested on: RT112/84 cells (FGFR3-fusion); experiment: RT112/84 cancer cell line cell viability assay (CellTiter-Glo 2.0); format: cell-based; details: Homo sapiens, 72 hours, Cell Titer Glo 2.0
Description: (§2) Experimental Purpose: To detect the change of intracellular ATP by Cell Titer-Glo® and to evaluate the inhibitory effect of the compounds on cancer cell lines by determining the in vitro IC50 value of the compounds.
(§3) Cell Titer-Glo® 2.0 Luminescent cell viability assay reagent was purchased from Promega (Madison, WI). RT112/84 and KG-1 cell lines were purchased from American Type Culture Collection (Manassas, VA). UM-UC-14 cell line was purchased from Sigma (St. Louis, MO). RT112/84, UM-UC-14, and KG-1 cells were cultured in RPMI1640 media supplemented with 10% fetal bovine serum. Cultures were maintained at 37° C. in a humidified atmosphere of 5% C02 and 95% air.
(§4) Cell Viability Assay Procedure: Cells were plated in 96-well clear bottom/white plates (Corning #3903) at 10,000 cells/well in 100 μl of media, incubated overnight. The next day, test compound DMSO stock solutions were made at 10 mM and 2 μM final concentration. Compounds were then added to cells in a 9-dose, 10-fold dilution series starting at 30 μM with an HP 300e Digital Dispenser (each dose was applied in triplicate). DMSO was backfilled to each well up to 301 nL total volume of test compound+DMSO, and a total of 301 nL DMSO was added to a control/no test compound well in triplicate. The cells in cell culture plates were incubated with the compounds at 37° C. and 5% C02 for 72 hours. Then 50 μl of Cell Titer Glo 2.0 reagent was added to each well of the cell culture plates. The contents were covered from light and mixed on an orbital shaker at room temperature for 10 min. Luminescence was recorded by a Synergy H1 Microplate Reader (Biotek, Winooski, VT). Cells were assessed as a percentage of DMSO only treated control cells. Curves were plotted and IC50 values were calculated using the GraphPad Prism 8 program based on a sigmoidal dose-response equation (4 parameter).

[3] = tested on: KG-1 cells (FGFR1-fusion); experiment: KG-1 cancer cell line cell viability assay (CellTiter-Glo 2.0); format: cell-based; details: Homo sapiens, 72 hours, Cell Titer Glo 2.0
Description: as §2, §3, §4

FGFR1 = FGFR1 (Homo sapiens (Human), UniProt P11362); experiment: Kinase assay, binding constants (Kd), kinase-tagged T7 phage, qPCR
Chain of FGFR1 (P11362 22-822): as the sequence (P11362 22-822 limits assumed, change not shown) above
Summary of the method: (§5)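 Using T7 phage lysates from BL21-derived E. coli, compounds at 0.9% final DMSO competed for kinase binding to ligand-bearing magnetic beads. After elution, qPCR measured remaining kinase, and Kds were fitted by non-linear least squares with the Hill slope fixed at −1.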

FGFR2 = FGFR2 (Homo sapiens (Human), UniProt P21802); experiment: as above
Chain of FGFR2 (P21802 22-821): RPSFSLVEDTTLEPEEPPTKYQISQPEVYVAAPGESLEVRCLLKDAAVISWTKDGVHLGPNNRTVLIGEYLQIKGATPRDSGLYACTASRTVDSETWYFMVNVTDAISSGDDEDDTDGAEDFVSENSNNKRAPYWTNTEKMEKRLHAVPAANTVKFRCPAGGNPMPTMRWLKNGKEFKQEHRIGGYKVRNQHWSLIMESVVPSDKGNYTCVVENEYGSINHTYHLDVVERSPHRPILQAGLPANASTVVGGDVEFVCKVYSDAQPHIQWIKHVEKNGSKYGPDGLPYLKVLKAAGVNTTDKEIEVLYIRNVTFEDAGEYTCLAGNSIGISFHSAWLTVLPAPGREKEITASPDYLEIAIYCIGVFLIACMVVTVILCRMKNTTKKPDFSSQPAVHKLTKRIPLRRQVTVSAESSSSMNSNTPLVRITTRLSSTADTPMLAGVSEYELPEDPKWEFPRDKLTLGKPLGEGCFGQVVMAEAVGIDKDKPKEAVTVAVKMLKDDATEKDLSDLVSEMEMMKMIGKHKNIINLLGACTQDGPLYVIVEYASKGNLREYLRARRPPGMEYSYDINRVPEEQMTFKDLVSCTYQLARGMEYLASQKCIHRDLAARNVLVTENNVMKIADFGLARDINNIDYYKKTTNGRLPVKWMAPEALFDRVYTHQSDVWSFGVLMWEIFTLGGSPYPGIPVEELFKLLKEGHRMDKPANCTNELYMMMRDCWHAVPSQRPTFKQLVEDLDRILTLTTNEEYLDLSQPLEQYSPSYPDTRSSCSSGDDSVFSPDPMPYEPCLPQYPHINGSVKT
Summary of the method: as §5

FGFR3 = FGFR3 (Homo sapiens (Human), UniProt P22607); experiment: as above
Chain of FGFR3 (P22607 23-806): as the sequence (P22607 23-806 limits assumed, change not shown) above
Summary of the method: as §5

FGFR3 (V555M) = FGFR3 (V555M) (Homo sapiens (Human), UniProt P22607, V555M); experiment: as above; details: V555M mutant
Chain of FGFR3 (V555M) (P22607 23-806 V555M): as the sequence (P22607 23-806 limits assumed, change not shown) above, with V533M counted along it
Summary of the method: as §5

FGFR4 = FGFR4 (Homo sapiens (Human), UniProt P22455); experiment: as above
Chain of FGFR4 (P22455 22-802): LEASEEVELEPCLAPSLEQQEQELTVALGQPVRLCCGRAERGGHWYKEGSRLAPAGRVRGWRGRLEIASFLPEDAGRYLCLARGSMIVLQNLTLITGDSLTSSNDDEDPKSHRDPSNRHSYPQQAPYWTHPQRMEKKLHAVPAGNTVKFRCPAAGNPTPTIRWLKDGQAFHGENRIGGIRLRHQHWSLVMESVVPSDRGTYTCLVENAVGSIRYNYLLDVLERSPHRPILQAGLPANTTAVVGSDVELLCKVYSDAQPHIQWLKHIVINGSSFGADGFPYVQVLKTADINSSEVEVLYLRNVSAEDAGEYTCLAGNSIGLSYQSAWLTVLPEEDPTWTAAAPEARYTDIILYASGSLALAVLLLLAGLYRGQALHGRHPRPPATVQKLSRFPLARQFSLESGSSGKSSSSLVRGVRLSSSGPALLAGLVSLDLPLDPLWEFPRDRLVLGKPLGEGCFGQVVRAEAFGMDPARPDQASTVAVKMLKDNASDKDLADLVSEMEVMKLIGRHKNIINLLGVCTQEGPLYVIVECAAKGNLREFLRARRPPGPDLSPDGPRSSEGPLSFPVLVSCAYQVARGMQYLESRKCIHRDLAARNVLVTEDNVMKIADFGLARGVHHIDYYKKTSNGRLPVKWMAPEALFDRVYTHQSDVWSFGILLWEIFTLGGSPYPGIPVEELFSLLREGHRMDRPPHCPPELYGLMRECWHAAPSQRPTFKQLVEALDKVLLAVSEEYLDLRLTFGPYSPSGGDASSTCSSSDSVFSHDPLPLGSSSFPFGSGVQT
Summary of the method: as §5

| SMILES | Ba/F3 FGFR1/FGFR3 Selectivity [1] | IC50 [1] | IC50 (FGFR1-BCR Ba/F3 cells) | IC50 [2] | IC50 [3] | Kd (FGFR1) | Kd (FGFR2) | Kd (FGFR3) | Kd (FGFR3 (V555M)) | Kd (FGFR4) |
| --- | --- | --- | --- | --- | --- | --- | --- | --- | --- | --- |
| C[C@@H](Oc1ccc2[nH]nc(-c3cnc(N4CCC5(CC4)CCS(=O)(=O)C5)c(F)c3)c2c1)c1c(Cl)cncc1Cl [Example 77, 8-[5-[5-[(1R)-1-(3,5-dichloro-4-pyridyl)ethoxy]-1H-indazol-3-yl]-3-fluoro-2-pyridyl]-2λ^6-thia-8-azaspiro[4.5]decane 2,2-dioxide] | 14 | 1 to 20 nM | 100 to 300 nM | 1 to 20 nM | 100 to 300 nM | 1 to 20 nM | 20 to 100 nM | 1 to 20 nM | 1 to 20 nM | 1 to 20 nM |
| Cc1ncc(Cl)c([C@@H](C)Oc2ccc3[nH]nc(-c4cnn(C5CCN(C6CCC6)CC5)c4)c3c2)c1Cl [Example 95, 3-[1-(1-cyclobutyl-4-piperidyl)pyrazol-4-yl]-5-[(1R)-1-(3,5-dichloro-2-methyl-4-pyridyl)ethoxy]-1H-indazole] | 14 | 20 to 100 nM | > 300 nM | 20 to 100 nM | 100 to 300 nM | 1 to 20 nM | 1 to 20 nM | 1 to 20 nM | 1 to 20 nM | 20 to 100 nM |
| CC(C)N1CC2(CN(c3ccc(-c4n[nH]c5ccc(O[C@H](C)c6c(Cl)cncc6Cl)cc45)cn3)C2)C1 [Example 31, 5-[(1R)-1-(3,5-dichloro-4-pyridyl)ethoxy]-3-[6-(2-isopropyl-2,6-diazaspiro[3.3]heptan-6-yl)-3-pyridyl]-1H-indazole] | – | – | – | 1 to 20 nM | 20 to 100 nM | 1 to 20 nM | 1 to 20 nM | 1 to 20 nM | 1 to 20 nM | 1 to 20 nM |
| C[C@@H](Oc1ccc2[nH]nc(-c3cnc(N4CCC5(CCC(=O)N5)CC4)c(F)c3)c2c1)c1c(Cl)cncc1Cl [Example 42, 8-[5-[5-[(1R)-1-(3,5-dichloro-4-pyridyl)ethoxy]-1H-indazol-3-yl]-3-fluoro-2-pyridyl]-1,8-diazaspiro[4.5]decan-2-one] | 17 | 1 to 20 nM | 100 to 300 nM | 1 to 20 nM | 20 to 100 nM | 1 to 20 nM | 20 to 100 nM | 1 to 20 nM | 1 to 20 nM | 1 to 20 nM |
| C[C@@H](Oc1ccc2[nH]nc(-c3cnc(N4CCC5(CC4)CC(=O)NC5=O)nc3)c2c1)c1c(Cl)cncc1Cl [Example 50, 8-[5-[5-[(1R)-1-(3,5-dichloro-4-pyridyl)ethoxy]-1H-indazol-3-yl]pyrimidin-2-yl]-2,8-diazaspiro-[4,5]decane-1,3-dione] | 16 | 1 to 20 nM | 100 to 300 nM | 20 to 100 nM | 100 to 300 nM | 20 to 100 nM | 20 to 100 nM | 1 to 20 nM | 1 to 20 nM | 1 to 20 nM |
| Cc1ncc(Cl)c([C@@H](C)Oc2ccc3[nH]nc(-c4cnn(C5CCN(C(C)C)CC5)c4)c3c2)c1Cl [Example 93, 5-[(1R)-1-(3,5-dichloro-2-methyl-4-pyridyl)ethoxy]-3-[1-(1-isopropyl-4-piperidyl)pyrazol-4-yl]-1H-indazole] | 11 | 20 to 100 nM | 100 to 300 nM | 1 to 20 nM | 100 to 300 nM | 1 to 20 nM | 1 to 20 nM | 1 to 20 nM | 1 to 20 nM | 20 to 100 nM |
| C[C@@H](Oc1ccc2[nH]nc(-c3ccc(N4CCC5(CCC(=O)N5)CC4)nc3)c2c1)c1c(Cl)cncc1Cl [Example 29, 8-[5-[5-[(1R)-1-(3,5-dichloro-4-pyridyl)ethoxy]-1H-indazol-3-yl]-2-pyridyl]-1,8-diazaspiro[4.5]decan-2-one] | 19 | 1 to 20 nM | 100 to 300 nM | 1 to 20 nM | 20 to 100 nM | 1 to 20 nM | 1 to 20 nM | 1 to 20 nM | 1 to 20 nM | 1 to 20 nM |
| Cc1ncc(Cl)c([C@@H](C)Oc2ccc3[nH]nc(-c4ccc(N5CC6(C5)CN(S(C)(=O)=O)C6)nc4)c3c2)c1Cl [Example 107, 5-[(1R)-1-(3,5-dichloro-2-methyl-4-pyridyl)ethoxy]-3-[6-(2-methylsulfonyl-2,6-diazaspiro[3.3]heptan-6-yl)-3-pyridyl]-1H-indazole] | 16 | 1 to 20 nM | 100 to 300 nM | 20 to 100 nM | 100 to 300 nM | 20 to 100 nM | 20 to 100 nM | 1 to 20 nM | 1 to 20 nM | 1 to 20 nM |
| C[C@@H](Oc1ccc2[nH]nc(-c3cnc(N4CC5(C4)CN(S(C)(=O)=O)C5)nc3)c2c1)c1c(Cl)cncc1Cl [Example 119, 5-[(1R)-1-(3,5-dichloro-4-pyridyl)ethoxy]-3-[2-(2-methylsulfonyl-2,6-diazaspiro[3.3]heptan-6-yl)pyrimidin-5-yl]-1H-indazole] | 9 | 1 to 20 nM | 20 to 100 nM | 20 to 100 nM | 100 to 300 nM | 20 to 100 nM | 20 to 100 nM | 1 to 20 nM | 1 to 20 nM | 1 to 20 nM |
| C[C@@H](Oc1ccc2[nH]nc(-c3cnc(N4CCC5(CCS(=O)(=O)C5)C4)nc3)c2c1)c1c(Cl)cncc1Cl (stereo partly drawn) [Example 127, 7-[5-[5-[(1R)-1-(3,5-dichloro-4-pyridyl)ethoxy]-1H-indazol-3-yl]pyrimidin-2-yl]-2λ^6-thia-7-azaspiro[4.4]nonane 2,2-dioxide] | 11 | 1 to 20 nM | 100 to 300 nM | 20 to 100 nM | 100 to 300 nM | 20 to 100 nM | 20 to 100 nM | 1 to 20 nM | 1 to 20 nM | 1 to 20 nM |
| C[C@@H](Oc1ccc2[nH]nc(-c3cnc(N4CC5(CCS(=O)(=O)C5)C4)nc3)c2c1)c1c(Cl)cncc1Cl [Example 122, 2-[5-[5-[(1R)-1-(3,5-dichloro-4-pyridyl)ethoxy]-1H-indazol-3-yl]pyrimidin-2-yl]-6λ^6-thia-2-azaspiro[3.4]octane 6,6-dioxide] | 7 | 1 to 20 nM | 20 to 100 nM | 1 to 20 nM | 100 to 300 nM | 1 to 20 nM | 20 to 100 nM | 1 to 20 nM | 1 to 20 nM | 1 to 20 nM |
| C[C@@H](Oc1ccc2[nH]nc(-c3ccc(N4CCC5(CC4)CN(C)CC(=O)N5)nc3)c2c1)c1c(Cl)cncc1Cl [Example 97, 9-[5-[5-[(1R)-1-(3,5-dichloro-4-pyridyl)ethoxy]-1H-indazol-3-yl]-2-pyridyl]-4-methyl-1,4,9-triazaspiro[5.5]undecan-2-one] | 15 | 1 to 20 nM | 20 to 100 nM | 1 to 20 nM | 20 to 100 nM | 1 to 20 nM | 1 to 20 nM | 1 to 20 nM | 1 to 20 nM | 1 to 20 nM |
| C[C@@H](Oc1ccc2[nH]nc(-c3ccc(N4CCNC(=O)CC4)nc3)c2c1)c1c(Cl)cncc1Cl [Example 30, 1-[5-[5-[(1R)-1-(3,5-dichloro-4-pyridyl)ethoxy]-1H-indazol-3-yl]-2-pyridyl]-1,4-diazepan-5-one] | 18 | 1 to 20 nM | 100 to 300 nM | 1 to 20 nM | 20 to 100 nM | 1 to 20 nM | 1 to 20 nM | 1 to 20 nM | 1 to 20 nM | 1 to 20 nM |
